Assay results published in ChEMBL document CHEMBL1201862, “PubChem BioAssay data set” (2004).
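Following 48 hours of exposure in 96-well plates, responses at five concentrations were used to interpolate endpoints linearly. GI50 = concentration required for 50% inhibition of growth.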 The source made the active and inactive calls. Rule as the data show it: active = GI50 up to about 1.1 µM and inactive = higher.

Key:
Test in all cases: inhibition of tumour cell growth, NCI panel, 48 h
[1] = tested on: EKVX
[2] = tested on: SF-539
[3] = tested on: LOX IMVI
[4] = tested on: HCT-116
[5] = tested on: HOP-62
[6] = tested on: BT-549
[7] = tested on: MOLT-4
[8] = tested on: NCI-H226
[9] = tested on: UACC-257
[10] = tested on: U-251
[11] = tested on: SK-MEL-2
[12] = tested on: NCI-H522
[13] = tested on: RPMI-8226
[14] = tested on: NCI-H460
[15] = tested on: KM12
[16] = tested on: CCRF-CEM
[17] = tested on: IGROV-1
[18] = tested on: HOP-92
[19] = tested on: NCI-H23
[20] = tested on: SF-268

Measured: GI50

O=C(O)CN1CCN2CCCCCCCCN(CC1)CCN(CC(=O)O)CC2
inactive: [1] > 100 µM | [2] > 100 µM | [3] > 100 µM | [4] > 100 µM | [5] > 100 µM | [6] > 100 µM | [7] > 100 µM | [8] > 100 µM | [9] > 100 µM | [10] > 100 µM | [11] > 100 µM | [12] 64.6 µM | [13] > 100 µM | [14] > 100 µM | [15] 75.2 µM | [16] > 100 µM | [17] > 100 µM | [18] > 100 µM

CC(=O)c1cccc(Nc2c3ccccc3nc3occc23)c1
inactive: [1] 25.6 µM | [2] 2.16 µM | [19] 3.01 µM | [3] 5.04 µM | [4] 3.5 µM | [5] 3.61 µM | [20] 16.1 µM | [6] 12.3 µM | [7] 5.27 µM | [8] 10.8 µM | [9] 11.3 µM | [10] 5.16 µM | [11] 2.74 µM | [12] 1.54 µM | [13] 3.34 µM | [14] 22.8 µM | [15] 4.73 µM | [16] 3.3 µM | [17] 2.54 µM | [18] 11.5 µM

Cc1[nH]nc(C(=O)N/N=C/c2ccccc2Cl)c1/N=N\N(C)C
inactive: [1] 12.4 µM | [2] 5.56 µM | [19] > 25.6 µM | [3] > 76.4 µM | [4] 4.05 µM | [5] 1.34 µM | [20] > 100 µM | [6] 2.99 µM | [7] 2.2 µM | [8] > 100 µM | [9] > 84.7 µM | [10] 14.8 µM | [11] > 100 µM | [12] > 61.4 µM | [13] 2.51 µM | [15] 2.86 µM | [16] 2.59 µM | [17] 40.8 µM | [18] > 23.9 µM

Clc1cc(OCc2nn3c(Cc4ccccc4)nnc3s2)ccc1OCc1nn2c(Cc3ccccc3)nnc2s1
inactive: [1] 17.1 µM | [2] 16.2 µM | [19] 38.9 µM | [3] 93.8 µM | [4] 53.5 µM | [5] 31.8 µM | [20] 29.8 µM | [6] 25.8 µM | [7] 34.4 µM | [8] 54.6 µM | [9] > 100 µM | [10] 21.6 µM | [11] > 100 µM | [12] 50.1 µM | [13] 49.7 µM | [14] 65.8 µM | [15] 79.8 µM | [17] 30.6 µM | [18] 17.3 µM

CN(C)Cc1ccc(-c2cc3onc(-c4ccccc4)c3c(=O)n2C)cc1
inactive: [1] > 100 µM | [2] 20.3 µM | [19] 29.6 µM | [3] 17.9 µM | [4] 14.4 µM | [5] 20.7 µM | [20] 31.2 µM | [6] 38.5 µM | [7] 17.8 µM | [8] > 100 µM | [9] 18.3 µM | [10] 22 µM | [11] 27.5 µM | [12] 18.7 µM | [13] 19.4 µM | [14] 17.5 µM | [15] 19.5 µM | [17] 36 µM | [18] 7.87 µM

COC1(O)C(=O)c2ccccc2OC1(OC)c1ccccc1 (stereo not drawn)
inactive: [1] > 100 µM | [2] > 100 µM | [19] > 100 µM | [3] 65.9 µM | [4] > 100 µM | [5] > 100 µM | [20] > 100 µM | [6] > 100 µM | [7] 75.2 µM | [8] > 100 µM | [9] > 100 µM | [10] > 100 µM | [11] > 100 µM | [12] > 100 µM | [13] > 100 µM | [14] 40.4 µM | [16] 46.8 µM | [17] > 100 µM | [18] > 100 µM

O=C1Nc2ccccc2/C1=C1\C(=O)Nc2ccccc21 [ISOINDIGO]
inactive: [1] 20.7 µM | [19] 20.9 µM | [3] 18.6 µM | [4] 17 µM | [5] 25 µM | [20] 31.2 µM | [6] 25.6 µM | [7] 3.59 µM | [8] > 100 µM | [9] 31.1 µM | [10] 11.4 µM | [11] 18.5 µM | [12] 10.3 µM | [13] 17.3 µM | [14] 21.6 µM | [15] 21.6 µM | [16] 2.9 µM | [17] 10.3 µM | [18] 20.6 µM
